Patent US6297242A, “N-substituted amidine and guanidine oxazolidinone antibacterials and methods of use thereof” (Ortho-McNeil Pharmaceutical, Inc., priority 2000, dated 2001)
Converted amounts (≈) assume the structure as drawn.

Key:
[1] = system: S. aureus OC4172; assay: NCCLS broth microdilution MIC, S. aureus OC4172; assay type: cell-based; conditions: Staphylococcus aureus, cation adjusted Mueller-Hinton broth, 35° C., 16-20 hours
Experimental: (§1) Minimal inhibitory concentration (MIC) has been an indicator of in vitro antibacterial activity widely used in the art. The in vitro antimicrobial activity of the compounds was determined by the microdilution broth method following the test method from the National Committee for Laboratory Standards (NCCLS). This method is described in the NCCLS Document M7-A4, Vol.17, No.2, "Methods for Dilution Antimicrobial Susceptibility Test for Bacteria that Grow Aerobically-Fourth Edition", which is incorporated herein by reference.
(§2) In this method two-fold serial dilutions of drug in cation adjusted Mueller-Hinton broth are added to wells in microdilution trays. The test organisms are prepared by adjusting the turbidity of actively growing broth cultures so that the final concentration of test organism after it is added to the wells is approximately 5×10^4 CFU/well.
(§3) Following inoculation of the microdilution trays, the trays are incubated at 35° C. for 16-20 hours and then read. […] The amount of growth in the wells containing the test compound is compared with the amount of growth in the growth-control wells (no test compound) used in each tray. As set forth in Table 1, compounds of the present invention were tested against a variety of Gram positive and Gram negative pathogenic bacteria resulting in a range of activities, from 1 to ≥128 μg/mL depending on the organism tested.

[2] = system: E. faecium OC3312; assay: NCCLS broth microdilution MIC, E. faecium OC3312; assay type: cell-based; conditions: Enterococcus faecium, cation adjusted Mueller-Hinton broth, 35° C., 16-20 hours
Experimental: as §1, §2, §3

[3] = system: MRSA OC2878; assay: NCCLS broth microdilution MIC, MRSA OC2878; assay type: cell-based, methicillin-resistant Staphylococcus aureus; conditions: Staphylococcus aureus, cation adjusted Mueller-Hinton broth, 35° C., 16-20 hours
Experimental: as §1, §2, §3

SMILES | MIC [1] | MIC [2] | MIC [3]
CSC(=NC#N)NCC1CN(c2ccc(N3CCOCC3)c(F)c2)C(=O)O1 (stereo in doubt) [Cmpd 3, N-Cyano-N'-[[(5S)-3-[3-fluoro-4-(4-morpholinyl)phenyl]-2-oxo-5-oxazolidinyl]methyl]carbamimidothioic acid, methyl ester] | 4 µg/mL (≈ 10.2 µM) | 8 µg/mL (≈ 20.3 µM) | 4 µg/mL (≈ 10.2 µM)
CN=C(NC#N)NC[C@H]1CN(c2ccc(N3CCOCC3)c(F)c2)C(=O)O1 [Cmpd 1, N-Cyano-N'-[[(5S)-3-[3-fluoro-4-(4-morpholinyl)phenyl]-2-oxo-5-oxazolidinyl]methyl]-N"-methylguanidine] | 16 µg/mL (≈ 42.5 µM) | 32 µg/mL (≈ 85 µM) | 32 µg/mL (≈ 85 µM)
CC(=NC[C@H]1CN(c2ccc(N3CCOCC3)c(F)c2)C(=O)O1)NC#N [Cmpd 2, N-Cyano-N'-[[(5S)-3-[3-fluoro-4-(4-morpholinyl)phenyl]-2-oxo-5-oxazolidinyl]methyl]ethanimidamide] | 2 µg/mL (≈ 5.53 µM) | 2 µg/mL (≈ 5.53 µM) | 1 µg/mL (≈ 2.77 µM)
CN(C)C(=NC#N)NC[C@H]1CN(c2ccc(N3CCOCC3)c(F)c2)C(=O)O1 [Cmpd 4, N-Cyano-N'-[[(5S)-3-[3-fluoro-4-(4-morpholinyl)phenyl]-2-oxo-5-oxazolidinyl]methyl]-N", N"-dimethylguanidine] | 16 µg/mL (≈ 41 µM) | 64 µg/mL (≈ 164 µM) | 32 µg/mL (≈ 82 µM)
CCCC(=NC#N)NC[C@H]1CN(c2ccc(N3CCOCC3)c(F)c2)C(=O)O1 [Cmpd 5, N-Cyano-N'-[[(5S)-3-[3-fluoro-4-(4-morpholinyl)phenyl]-2-oxo-5-oxazolidinyl]methyl]butyrimidate] | 8 µg/mL (≈ 20.5 µM) | 8 µg/mL (≈ 20.5 µM) | 8 µg/mL (≈ 20.5 µM)
CC(=N)NC[C@H]1CN(c2ccc(N3CCOCC3)c(F)c2)C(=O)O1 [Cmpd 6] | > 128 µg/mL | > 128 µg/mL | 128 µg/mL (≈ 381 µM)
CC(=O)N=C(C)NC[C@H]1CN(c2ccc(N3CCOCC3)c(F)c2)C(=O)O1 [Cmpd 7, N-Acetyl-N'-[[(5S)-3-[3-fluoro-4-(4-morpholinyl)phenyl]-2-oxo-5-oxazolidinyl]methyl]acetimidate] | 32 µg/mL (≈ 84.6 µM) | 64 µg/mL (≈ 169 µM) | 16 µg/mL (≈ 42.3 µM)
